Read-outs that look alike come from different tables or passages of the source.
Experiments:
LDs in HeLa cells [1] = assay: Co-staining imaging with LDs dye Nile Red (CLSM); assay type: cell-based; details: 100 nM
Description: (§1) To confirm the intracellular location of NAP AIEgens in live cells, co-staining imaging experiments were performed. […] It is believed that positive-charged dyes like NAP-Py^+ can stain mitochondria due to the high negative membrane potential of mitochondria. To determine why other NAP AIEgens without positive charge locate in LDs, additional investigation was conducted.

LDs in HeLa cells [2] = assay: One-photon LDs imaging at 50 nM; assay type: cell-based; details: 405 nm laser intensity 12%
Description: One-photon imaging experiments in HeLa cells stained with 50 nM of NAP-Ph, NAP-Br, NAP-CF3, and NAP-Py were performed, and Nile Red was used as comparison. […] As far as we know, this is the lowest concentration used for LDs imaging.

HeLa cells = assay: Photostability under continuous confocal laser irradiation; assay type: cell-based; details: continuous irradiation for 10 min; NAP AIEgens 405 nm, Nile Red 543 nm, power 12%
Description: FIG. 20 is a graph depicting photostability of NAP AIEgens and Nile Red in HeLa cells under continuous irradiation (irradiation conditions: for NAP AIEgens, 405 nm laser, laser power of 12%; for Nile Red, 543 nm laser, laser power of 12%).
Considering the above-mentioned excellent bioimaging characteristics of these NAP AIEgens, further experiments were performed to evaluate their photostability and cytotoxicity. The photostability of NAP AIEgens was evaluated by continuous irradiation with confocal lasers, and data was collected every second. […] Furthermore, standard MTT (3-(4,5-dimethylthiazol-2-yl)-2,5-diphenyl-2H-tetrazolium) assays were performed to evaluate the cytotoxicity of NAP AIEgens in live cells.

[3] = Absorption and fluorescence (photophysical properties) in solvent and solid state; assay type: physicochemical; details: for Φ (fluorescence quantum yield): integrating sphere; for Solvatochromism: toluene, diethyl ether, THF, acetone, DMSO
Description: ^1H and ^13C NMR spectra were measured on Bruker ARX 400 NMR spectrometers using CDCl3 as the deuterated solvent. High-resolution mass spectra (HRMS) were recorded on a Finnegan MAT TSQ 7000 Mass Spectrometer System operating in a MALDI-TOF mode. UV absorption spectra were taken on a Milton Ray Spectronic 3000 array spectrophotometer. Steady-state fluorescence spectra were recorded on a Perkin Elmer LS 55 spectrometer. Fluorescence images were collected on Olympus BX 41 fluorescence microscope. Laser confocal scanning microscope images were collected on Zeiss laser scanning confocal microscope (LSM7 DUO) and analyzed using ZEN 2009 software (Carl Zeiss). Two-photon fluorescence imaging was carried out on Olympus FV 300 laser confocal microscope. In two-photon experiments, the excitation wavelengths were 860 nm from a Ti:sapphire femtosecond laser source (coherent chamelon ultra) and the incident power on samples was modified by means of an attenuator and examined with a power monitor (Coherent). A multiphoton emission filter (FF01-750; Semrock) was used to block the IR laser.
The absorption and fluorescence (FL) data of the NAP AIEgens were investigated, and corresponding spectra are shown in FIGS. 5A-5H, 6A-6E, and FIG. 7.
This phenomenon is probably due to the changes in morphology and size of the aggregates formed in the water-THF mixture with high water fractions. […] It should be noted that the FL of NAP AIEgens in high water fraction (fw>90%) increased only several-fold compared with that in THF or CH3CN (FIG. 5G), probably because of formation of loosely packed aggregates. […] The FL spectra of NAP AIEgens were further measured in different polar solvents (FIGS. 6A-6E). […] As for NAP-CF3, the reason for blue-shifted FL in the solid state was likely its twisted structure (FIG. 2E), resulting in only […] π-π interaction rather than J-aggregation (FIG. 2B). […] The FL quantum yields (QYs, Table 1) of NAP AIEgens were measured by using an integrating sphere. […] It should be pointed out that the solid FL QY of NAP-Py^+ was low, likely due to a narrow energy gap and enhanced nonradiative transitions in NIR fluorescent dyes (FIG. 7). Furthermore, longer FL lifetimes of NAP AIEgens in the solid state than those in solvents also verified that restriction of intramolecular motion (RIM) can prohibit energy dissipation via non-radiative channels and enhance the FL of NAP AIEgens (Table 1).

[4] = Two-photon absorption (TPA) cross section of aggregate suspensions, fluorescein as standard; assay type: physicochemical; details: aggregate suspension in H2O containing 1% CH3CN
Description: With fluorescein as the standard, the TPA cross sections (δ) of NAP AIEgens at different wavelengths were also measured (FIG. 8F). […] To further acquire the TPEF, NAP AIEgens in solid states were directly excited at 800 nm (intensity of about 0.35 mW).

[5] = tested on: mitochondria in HeLa cells; assay: Co-staining imaging with mitochondria dye MitoTracker Deep Red FM; assay type: cell-based; details: NAP-Py^+ 1 μM, MTDR 100 nM
Description: as §1

[6] = tested on: LDs in live mice liver tissue; assay: Ex vivo two-photon imaging of live mice liver tissue; details: 1 μM, 1 h incubation, λex 860 nm
Description: TP fluorescence imaging outperforms imaging in one-photon mode as a result of high penetration in tissues and low background fluorescence because of near-infrared light excitation and low excitation power. […] After incubation with NAP-CF3 (1 μM) for 1 h, bright spherical spots with TP fluorescence of NAP-CF3 were observed (FIG. 18). For the live mice liver tissue without NAP-CF3, however, only low background fluorescence was obtained. […] To investigate whether NAP-CF3 could show LDs-specific staining in deep live mice liver tissue, TP fluorescence images along the Z-axis were captured. As shown in FIGS. 19A-19F, the fluorescent signal of the spherical spot could be clearly detected at different Z-axis depths even up to 70 μm. […] These excellent TP tissue imaging properties render NAP-CF3 a tremendous tool to visualize LDs-associated biomedical application in live tissues.

[7] = THF or CH3CN (CH3CN for NAP-Py^+)
[8] = THF or CH3CN (CH3CN for NAP-Py^+), listed as NAP-Py^+

SMILES | Pearson's coefficient with Nile Red (LDs in HeLa cells [1]) | LDs staining (LDs in HeLa cells [2]) | Fluorescence intensity change under irradiation (HeLa cells) | αAIE = Φsolid/Φsolvent [3] | λem max ([3]; Solid) [nm] | τ (fluorescence lifetime) ([3]; Solid) [ns] | Φ (fluorescence quantum yield) ([3]; Solid) | Stokes shift [3, 7] [nm] | λabs max [3, 7] [nm] | λem max [3, 7] [nm] | τ (fluorescence lifetime) [3, 7] [ns] | Φ (fluorescence quantum yield) [3, 7] | Solvatochromism [3] | also measured
COc1c(/C=C(\C#N)c2ccc(Br)cc2)ccc2cc(N(C)C)ccc12 [NAP-Br] | 0.83 | clear fluorescence | dropped to some extent | 9.00 | 597 | 4.43 | 0.126 | 116 | 409 | 525 | <0.60 | 0.014 | positive solvatochromism | 
COc1c(/C=C(\C#N)c2ccc(-c3ccccc3)cc2)ccc2cc(N(C)C)ccc12 [NAP-Ph] | 0.90 | clear fluorescence | dropped to some extent | 14.89 | 566 | 1.42 | 0.268 | 114 | 409 | 523 | <0.34 | 0.018 | positive solvatochromism | λem max ([3]; THF/water mixture, water fraction 90%, aggregates): 557 nm
COc1c(/C=C(\C#N)c2ccc(-c3ccncc3)cc2)ccc2cc(N(C)C)ccc12 [NAP-Py] | 0.88 | clear fluorescence | dropped to some extent | 14.47 | 619 | 1.39 | 0.217 | 128 | 413 | 541 | <0.67 | 0.015 | positive solvatochromism | TPA cross section (δ) value [4]: very large; Pearson's coefficient with MitoTracker Deep Red FM [5]: 0.89; Φ (fluorescence quantum yield) ([3]; Solid, listed as NAP-Py^+): 0.048; λem max ([3]; Solid, listed as NAP-Py^+): 676 nm; τ (fluorescence lifetime) ([3]; Solid, listed as NAP-Py^+): 1.32 ns; Φ (fluorescence quantum yield) [3, 8]: 0.008; Stokes shift [3, 8]: 85 nm; λabs max [3, 8]: 455 nm; λem max [3, 8]: 540 nm; τ (fluorescence lifetime) [3, 8]: <0.58 ns; αAIE = Φsolid/Φsolvent ([3]; listed as NAP-Py^+): 6.00; Solvatochromism ([3]; listed as NAP-Py^+): negative solvatochromism
CCN(CC)c1ccc2nc3c4ccccc4c(=O)cc-3oc2c1 [Nile Red, reference compound] |  | non-specific staining in cytoplasm | drastically decreased |  |  |  |  |  |  |  |  |  |  | 
COc1c(/C=C(\C#N)c2cc(C(F)(F)F)cc(C(F)(F)F)c2)ccc2cc(N(C)C)ccc12 [NAP-CF3] | 0.85 | clear fluorescence |  | 18.25 | 555 | 6.29 | 0.292 | 135 | 425 | 560 | <0.67 | 0.016 | positive solvatochromism | LDs staining in live mice liver tissue [6]: excellent LDs staining property; Z-axis depth at which fluorescent signal is detected [6]: up to 70 μm

Source: US11220629B2, “Two-photon fluorescent compounds for specific lipid droplet imaging in live cells and deep tissues at ultralow concentration” (THE HONG KONG UNIVERSITY OF SCIENCE AND TECHNOLOGY, priority 2018, dated 2022)
